Entries after “also recorded” stand apart in the source; their conditions may differ.
Assays:
[1] = system: Arabidopsis thaliana seedlings; assay: Arabidopsis root growth inhibition in growth media; format: in vivo; settings: for relative toxicity of the D, L and DL forms: Arabidopsis thaliana seedlings
[2] = system: lettuce seedlings (Lactuca sativa L.); assay: Petri-dish bioassay, radicle elongation in lettuce seedlings; format: in vivo; settings: lettuce seedlings

NC(Cc1cccc(O)c1)C(=O)O (stereo not drawn) [DL m-tyrosine]
toxicity of the three forms at 40 μM [1]: same level of toxicity
relative toxicity of the D, L and DL forms [1]: roughly equal toxicity

N[C@@H](Cc1ccccc1O)C(=O)O [o-tyrosine, 2′-hydroxyphenylalanine]
phytotoxicity [2]: no toxicity; also recorded: not phytotoxic; also recorded: devoid of herbicidal activity

N[C@@H](Cc1ccccc1)C(=O)O [phenylalanine, reference compound]
root growth restored by addition of phenylalanine ([1]; root growth inhibition initiated by m-tyrosine): 80 % of the control levels

N[C@H](Cc1cccc(O)c1)C(=O)O [D-m-tyrosine]
toxicity of the three forms at 40 μM [1]: same level of toxicity
relative toxicity of the D, L and DL forms [1]: less toxic at low concentrations

O=C(O)C(=O)Cc1cccc(O)c1 [m-hydroxyphenylpyruvic acid]
toxicity compared with m-tyrosine ([1]; Arabidopsis root growth): as toxic as m-tyrosine
root growth of Arabidopsis when phenylalanine is added to the media ([1]; in vivo): not rescued

N[C@@H](Cc1ccc(O)cc1)C(=O)O [p-tyrosine, tyrosine]
rescue of root growth inhibition initiated by 3 μM of m-tyrosine ([1]; concentrations up to 1 mM): did not rescue
phytotoxicity [2]: no toxicity; also recorded: not phytotoxic

N[C@@H](Cc1cccc(O)c1)C(=O)O [L-m-tyrosine, L-3′-hydroxyphenylalanine]
toxicity of the three forms at 40 μM [1]: same level of toxicity
relative toxicity of the D, L and DL forms [1]: roughly equal toxicity

— US8461085B2, “Bioherbicide from Festuca spp” (Cornell Research Foundation, Inc., priority 2005, dated 2013)
